This is an account of results in ChEMBL document CHEMBL2074215, “The effects of pluronics block copolymers and Cremophor EL on intestinal lipoprotein processing and the potential link with P-glycoprotein in Caco-2 cells” (Pharm Res, 2003).

This series deals with ATP-dependent translocase ABCB1 (Homo sapiens, UniProt P08183). In words: TP_TRANSPORTER: transepithelial transport of cyclosporin A in Caco-2 cells. In kind it is functional, cell-based. (In general: Passage across Caco-2 layers is used to estimate intestinal permeability.)
ATP-dependent translocase ABCB1, sequence (P08183 whole entry): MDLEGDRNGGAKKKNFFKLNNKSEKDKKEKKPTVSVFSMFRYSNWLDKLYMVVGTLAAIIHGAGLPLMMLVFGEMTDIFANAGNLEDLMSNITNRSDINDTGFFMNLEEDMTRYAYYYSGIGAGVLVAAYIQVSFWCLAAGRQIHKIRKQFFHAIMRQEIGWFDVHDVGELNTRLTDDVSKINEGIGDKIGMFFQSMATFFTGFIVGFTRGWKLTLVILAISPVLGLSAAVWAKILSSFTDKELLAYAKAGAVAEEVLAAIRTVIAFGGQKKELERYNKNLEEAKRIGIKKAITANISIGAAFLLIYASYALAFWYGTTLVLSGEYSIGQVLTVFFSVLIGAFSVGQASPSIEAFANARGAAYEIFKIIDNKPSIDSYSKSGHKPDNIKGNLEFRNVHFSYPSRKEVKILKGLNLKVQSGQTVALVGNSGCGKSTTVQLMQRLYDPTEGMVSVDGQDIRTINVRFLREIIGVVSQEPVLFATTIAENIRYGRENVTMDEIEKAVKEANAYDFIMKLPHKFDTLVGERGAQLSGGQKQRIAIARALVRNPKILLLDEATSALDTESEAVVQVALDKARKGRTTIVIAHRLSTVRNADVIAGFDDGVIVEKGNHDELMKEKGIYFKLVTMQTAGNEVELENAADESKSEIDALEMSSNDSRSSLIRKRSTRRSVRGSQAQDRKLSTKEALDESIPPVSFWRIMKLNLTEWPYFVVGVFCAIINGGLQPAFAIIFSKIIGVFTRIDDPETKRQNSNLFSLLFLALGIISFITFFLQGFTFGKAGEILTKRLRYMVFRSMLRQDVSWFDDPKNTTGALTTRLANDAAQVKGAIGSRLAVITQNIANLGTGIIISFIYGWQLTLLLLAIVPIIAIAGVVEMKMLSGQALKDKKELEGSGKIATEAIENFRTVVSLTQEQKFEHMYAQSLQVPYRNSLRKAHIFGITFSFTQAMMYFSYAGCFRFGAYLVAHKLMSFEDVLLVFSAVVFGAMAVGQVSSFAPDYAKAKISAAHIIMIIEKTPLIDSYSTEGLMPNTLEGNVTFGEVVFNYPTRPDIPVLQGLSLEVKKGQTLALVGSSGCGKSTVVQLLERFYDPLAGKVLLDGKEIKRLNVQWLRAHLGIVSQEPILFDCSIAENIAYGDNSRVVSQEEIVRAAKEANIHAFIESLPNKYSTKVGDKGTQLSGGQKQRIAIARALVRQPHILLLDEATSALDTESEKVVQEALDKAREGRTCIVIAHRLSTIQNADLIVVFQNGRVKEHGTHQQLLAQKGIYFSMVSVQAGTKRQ

With PLURONIC L81, the Activity result is “inhibitor [+]”.

As for CREMOPHOR EL, the Activity entry is “inhibitor [+]”.
